We go through two compounds from article PMC10218704, “A Novel Blood–Brain Barrier-Penetrating and Vascular-Targeting Chimeric Peptide Inhibits Glioma Angiogenesis” (International Journal of Molecular Sciences, 2023).

Ends that are not written are not given here.

The subject of series [1] is VEGFR-2. It counts as binding, human. The conditions noted are these: peptide 256 and 1000 nmol/L; VEGF-A165 0.5-8 nmol/L; CM5 chip; HBS-EP. Here is the method: To determine the effect of TAT-AT7 in competition with VEGF-A165 binding to VEGFR-2 or NRP-1, the SPR assay was conducted. The whole operation was conducted on a Biacore S200 instrument. The recombinant VEGFR-2 or NRP-1 proteins were firstly immobilized on a CM5 chip by an amine-coupling reaction. VEGF-A165 ligands with gradient concentrations in the absence or presence of different peptides were then flowed over the CM5 chip. The binding of VEGF-A165 ligands to the immobilized recombinant VEGFR-2 or NRP-1 proteins led to an increase of the refractive index on the surface of the chip, which could be converted into the fluctuation of electrical signals in the response (RU). As the concentration of VEGF-A165 was higher, the response value was also higher. However, with the addition of different peptides, the response value decreased to different degrees (Figure 3A and Figure 4A).
(TAT), ATWLPPR (AT7), and […] (TAT-AT7) were synthesized from China Peptides Co., Ltd. (Shanghai, China). The Hoechst 33,258 staining kit, Annexin V-FITC/PI apoptosis detection kit, and BCA protein assay kit were obtained from Beyotime Biotechnology (Nantong, China). The total protein extraction kit was from BestBio (Shanghai, China). The CM5 sensor chip was obtained from GE Healthcare Life Sciences (Uppsala, Sweden). Purified recombinant human VEGFR-2 and NRP-1 receptor proteins were purchased from R&D Systems (Minneapolis, MN, USA). Recombinant human endothelial growth factor-A165 (VEGF-A165) was obtained from PeproTech (Rocky Hill, NJ, USA). Anti-ERK1/2, anti-p-ERK1/2, anti-p-VEGFR-2, anti-AKT, anti-p-AKT, anti-p-SRC, anti-p-FAK, anti-p38 MAPK, anti-p-p38 MAPK, anti-p-PLC-γ, and anti-GAPDH antibodies were purchased from Cell Signaling Technology (Danvers, MA, USA). Anti-VEGFR-2, anti-FAK, and anti-SRC were purchased from Proteintech Group, Inc (Wuhan, China). F-12K medium, heparin, and endothelial cell growth supplement (ECGS) were from Macgene (Beijing, China). DMEM medium and fetal bovine serum (FBS) were obtained from Gibco®, Life Technologies (Carlsbad, CA, USA). […]

In series [2] the test system is SRC. Briefly: Western blot, phosphorylation of SRC. The conditions noted are these: 320 μmol/L, 90 min, VEGF-A165 30 ng/mL, HUVECs, vs control, AT7, TAT, n = 3. Format: cell-based, human. The procedure: (§1) For Western blotting analysis, HUVECs were seeded into 6-well culture plates at 3 × 10^5 cells/well and incubated overnight. […] Two control groups (F-12K medium in the absence or presence of VEGF-A165) were set. The cells were washed with cold PBS and lysed with lysis buffer (protease and phosphatase inhibitors) on the ice for 30 min, and then centrifuged at 4 °C for 15 min at 14,000 r/min. The supernatant was collected, and its total protein concentration was determined by the BCA protein assay kit. Equal amounts of proteins were separated by 10% SDS-PAGE gels and transferred to polyvinylidene difluoride (PVDF) membranes. After blocking with 5% non-fat milk for 1 h, the membranes were incubated with specific antibodies at 4 °C overnight. Then, the membranes were washed with TBST (Tris-Buffered Saline with 0.1% Tween 20) and incubated with horseradish peroxidase (HRP)-conjugated secondary antibody for 1 h at room temperature. The proteins on the membranes were visualized with enhanced chemiluminescence agents.
In general terms: In western blotting, separated proteins are transferred to a membrane and probed.

For series [3], the system named is AKT. Nature of the series: Western blot, phosphorylation of AKT. It counts as cell-based, human. Conditions: 320 μmol/L, 90 min, VEGF-A165 30 ng/mL, HUVECs, vs control, AT7, TAT, n = 3. The procedure:
as §1

Series [4] relates to FAK. Briefly: Western blot, phosphorylation of FAK. Format: cell-based, human. Conditions: 320 μmol/L, 90 min, VEGF-A165 30 ng/mL, HUVECs, vs control, AT7, TAT, n = 3. Here is the method: as §1
The test system of series [5] is NRP-1. Conditions: for inhibition of binding of VEGF-A165 and NRP-1: peptide 1000 nmol/L.
Protocol: The SPR assay was performed using the Biacore S200 instrument (GE Healthcare, Uppsala, Sweden). Firstly, the CM5 sensor chip was activated with EDC/NHS. Then, the recombinant VEGFR-2 and NRP-1 proteins were immobilized on the surface of the sensor chip according to the operating instructions of amine coupling. VEGF-A165 was diluted to 8, 4, 2, 1, and 0.5 nmol/L in different concentrations of peptide solution dissolved by HBS-EP buffer (0, 0.016, 0.064, 0.256, and 1 μmol/L, respectively). The Kinetics/Affinity program was selected, and the automatic continuous injection program was set. The injection flow rate was 30 μL/min, the injection time was 120 s, and the dissociation time was 220 s. At the same time, zero-concentration injection wells and 0.5 nmol/L repeat-concentration injection wells of VEGF-A165 were set. At the end of each injection, the channels were flushed with glycine-HCl solution for 30 s until response values were returned to baseline.
The conditions of series [6]: compared with TAT or AT7 alone; cited from earlier work. From the text:
Intracranial delivery of therapeutic agents is primarily hindered by the BBB [24]. The intercellular tight junction caused by the BBB restricts the passive diffusion of almost all large-molecule and more than 98% of small-molecule drugs from peripheral blood circulation to the brain tissue. TAT ([…]), one of the most promising cationic cell-penetrating peptides (CPPs), has been widely applied in drug delivery due to its high efficiency to facilitate the tissue penetration and internalization of cargos and break through a variety of biological barriers, such as cell membrane ...

Series [7] deals with VEGF-induced rabbit corneal angiogenesis. The conditions noted are these: cited from earlier work. An excerpt: Most peptides and proteins are usually functional and efficacious signaling molecules that naturally exist or are synthesized by artificial methods. Compared with proteins, peptides have higher tissue permeability, protease hydrolysis tolerability, and lower production costs. Furthermore, the pharmacological functions of peptides are easier to be improved by modification strategies, whereas their intrinsic properties are rarely affected. […] ATWLPPR (AT7), which was identified by a mutated phage lib ...

Setting [8] is: VEGF-A165 0.5-8 nmol/L, CM5 chip, HBS-EP.

As to `CC(C)C[C@H](NC(=O)[C@H](Cc1c[nH]c2ccccc12)NC(=O)[C@@H](NC(=O)[C@H](C)NC(=O)[C@H](CS)NC(=O)[C@H](CCCNC(=N)N)NC(=O)[C@H](CCCNC(=N)N)NC(=O)[C@H](CCCNC(=N)N)NC(=O)[C@H](CCC(N)=O)NC(=O)[C@H](CCCNC(=N)N)NC(=O)[C@H](CCCNC(=N)N)NC(=O)[C@H](CCCCN)NC(=O)[C@H](CCCCN)NC(=O)[C@@H](N)CCCNC(=N)N)[C@@H](C)O)C(=O)N1CCC[C@H]1C(=O)N1CCC[C@H]1C(=O)N[C@@H](CCCNC(=N)N)C(=O)O` [TAT-AT7], in series [1], the “effect on VEGF-A165 and VEGFR-2 binding (RU)” value is “significantly reduced the RU value”. For the same compound, the “phosphorylation level of SRC” value in series [2] is reported as “significantly inhibited the phosphorylation level”. The “phosphorylation level of AKT” value in series [3] is given as “significantly inhibited the phosphorylation level”. In addition, the “phosphorylation level of FAK” value in series [4] is given as “significantly inhibited the phosphorylation level”. The “inhibition of VEGF-A165 binding to NRP-1 relative to VEGFR-2” value in series [5] (SPR, NRP-1 compared with VEGFR-2) is “stronger inhibitory effect on the binding of VEGF-A165 to NRP-1”. Further, in series [5] (setting [8]), the “inhibitory effect on VEGF-A165/NRP-1 binding, comparison between peptides” value was “much higher than that of AT7 and TAT”; the “inhibition of binding of VEGF-A165 and NRP-1” value is “completely inhibited the binding of VEGF-A165 and NRP-1”. In addition, in series [5] (peptide 256 nmol/L, VEGF-A165 0.5-8 nmol/L, CM5 chip, HBS-EP), the “binding curve of VEGF-A165 and NRP-1” value is reported as “tended to be a zero baseline”. Also, in series [6], the BBB-penetration capability result was “stronger BBB-penetration capabilities”.
For the compound ATWLPPR [AT7, ATWLPPR], the “effect on VEGF-A165 and VEGFR-2 binding (RU)” value in series [1] was “less inhibitory effects on VEGF-A165 and VEGFR-2 binding than TAT-AT7”. Moreover, the “inhibition of binding of VEGF-A165 and NRP-1” value in series [5] (setting [8]) is “displayed inhibitory effects on the binding of VEGF-A165 and NRP-1, but it did not completely inhibit the binding”. Further, the “effect on VEGF-induced rabbit corneal angiogenesis” value in series [7] is reported as “inhibitory effect on VEGF-induced rabbit corneal angiogenesis”.
